Measurements: patent publication US9708368B2, “Linear peptide antibiotics” (priority 2012, dated 2017)
In brackets after ≈: the same amount, converted by molar mass. Square brackets hold non-standard residues; d marks the D form. Peptide text beside a SMILES is read from it. * marks the point of attachment. boroAla((+)-pinanediol) = C[C@H](N*)B1O[C@@H]2C[C@@H]3C[C@@H](C3(C)C)[C@]2(C)O1; Biphenylcarbonyl(4'-Bu) = CCCCc1ccc(-c2ccc(C(=O)*)cc2)cc1; X1 = C[C@H](N*)B1OC2C[C@@H]3C[C@@H](C3(C)C)[C@]2(C)O1; Benzoyl(4-(4-Cl-Ph)) = O=C(c1ccc(-c2ccc(Cl)cc2)cc1)*; boroAla = C[C@H](N*)B(O)O; Dab = NCC[C@H](N)C(=O)O; Abu = CC[C@H](N)C(=O)O; Dap = NC[C@H](N)C(=O)O; βAla = NCCC(=O)O

Assays:
[1] = tested on: methicillin resistant Staphylococcus aureus (MRSA) strain USA300 (NRS384); details: Method B, 35° C., 22 hours
[2] = tested on: Escherichia coli strain MC4100 IMP-4213, which harbors an LptD mutation; details: Method B; E. coli MC4100 IMP-4213 (LptD mutation); 35° C., 22 hours
Method: In vitro antimicrobial activity of each compound was determined by measuring minimal inhibitor concentrations (MICs) using the broth micro-dilution technique as approved by the Clinical and Laboratory Standards Institute (CLSI). […] Bacterial inocula were prepared by scraping cells into 1 mL of testing media (cation adjusted Mueller Hinton Broth supplemented with 0.002% v/v Tween-80) and diluting to a final OD600 nm of 0.01.
Test compounds were prepared in DMSO at a concentration of 10 mg/ml. […] Bacterial inocula were added to the two fold serial dilutions of test compounds to a final density of OD OD600 nm of 0.0005 and incubated stationarily at 35° C. for 22 hours, after which the plates were examined visually.

[3] = target: S. aureus SPase (Staphylococcus aureus, UniProt P0A070); assay: biochemical
[4] = target: E. coli SPase (Escherichia coli, UniProt P00803); assay: Biochemical SPase activity assay (fluorogenic peptide substrate), E. coli enzyme
E. coli SPase, sequence (P00803 whole entry): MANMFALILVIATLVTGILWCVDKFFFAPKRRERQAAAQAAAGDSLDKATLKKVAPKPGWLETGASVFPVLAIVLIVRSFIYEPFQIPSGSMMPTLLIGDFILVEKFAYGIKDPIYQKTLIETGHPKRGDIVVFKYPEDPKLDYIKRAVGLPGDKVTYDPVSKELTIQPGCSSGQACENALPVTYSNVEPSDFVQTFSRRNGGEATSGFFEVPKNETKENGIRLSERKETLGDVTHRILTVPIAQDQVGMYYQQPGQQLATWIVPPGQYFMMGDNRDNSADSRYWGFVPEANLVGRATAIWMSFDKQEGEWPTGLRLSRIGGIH

S. aureus SPase, sequence (P0A070 whole entry): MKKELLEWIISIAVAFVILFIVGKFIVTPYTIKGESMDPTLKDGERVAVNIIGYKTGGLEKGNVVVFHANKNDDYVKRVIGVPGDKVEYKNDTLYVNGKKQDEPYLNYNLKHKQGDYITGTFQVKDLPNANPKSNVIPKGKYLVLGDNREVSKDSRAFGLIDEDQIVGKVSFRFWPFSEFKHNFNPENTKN

Row | SMILES | MIC (μg/mL) S. aureus [1] [µg/mL] | MIC (μg/mL) E. coli [2] [µg/mL] | IC50 [3] [nM] | IC50 [4] [nM]
1 | CCCCc1ccc(-c2ccc(C(=O)NCCC(=O)N[C@@H](CCCCN)C(=O)N[C@H](C(=O)N[C@@H](C)C(=O)N[C@H](C(=O)N[C@@H](C)B3O[C@@H]4C[C@@H]5C[C@@H](C5(C)C)[C@]4(C)O3)C(C)C)[C@@H](C)O)cc2)cc1 [Compound 194] ({Biphenylcarbonyl(4'-Bu)-βAla}-KTAV-{boroAla((+)-pinanediol)}) | 0.71 (≈ 0.763 µM) | 6.3 (≈ 6.77 µM) | 4.7 | 16
2 | CCCCc1ccc(-c2ccc(C(=O)N[C@@H](CCN)C(=O)N[C@@H](CCN)C(=O)N[C@@H](C)C(=O)N[C@@H](CC)C(=O)N[C@@H](C)B3OC4C[C@@H]5C[C@@H](C5(C)C)[C@]4(C)O3)cc2)cc1 (stereo partly drawn) [Compound 182] ({Biphenylcarbonyl(4'-Bu)}-[Dab][Dab]A[Abu]-X1) | 4 (≈ 4.9 µM) | 0.71 (≈ 0.87 µM) | 1100 | 35
3 | CCCCc1ccc(-c2ccc(C(=O)N[C@@H](CCCCN)C(=O)N[C@@H](CCC(=O)O)C(=O)N[C@@H](C)C(=O)N[C@@H](CCCCN)C(=O)N[C@@H](C)B3O[C@@H]4C[C@@H]5C[C@@H](C5(C)C)[C@]4(C)O3)cc2)cc1 [Compound 151] ({Biphenylcarbonyl(4'-Bu)}-KEAK-{boroAla((+)-pinanediol)}) | 0.71 (≈ 0.775 µM) | 1.2 (≈ 1.31 µM) | 38 | 8.8
4 | CCCCc1ccc(-c2ccc(C(=O)N[C@@H](CN)C(=O)N[C@@H](CCC(=O)N[C@H](CC(=O)O)C(=O)O)C(=O)N[C@@H](C)C(=O)N[C@@H](CCCCN)C(=O)N[C@@H](C)B3OC4C[C@@H]5C[C@@H](C5(C)C)[C@]4(C)O3)cc2)cc1 (stereo partly drawn) [Compound 259] ({Biphenylcarbonyl(4'-Bu)}-[Dap]E(dD)AK-X1) | 11 (≈ 11.1 µM) | 4 (≈ 4.04 µM) | 32 | 2.6
5 | C[C@H](NC(=O)[C@H](CCCCN)NC(=O)[C@H](C)NC(=O)[C@H](CCCCN)NC(=O)[C@H](CN)NC(=O)c1ccc(-c2ccc(Cl)cc2)cc1)B(O)O [Compound 180] ({Benzoyl(4-(4-Cl-Ph))}-[Dap]KAK-boroAla) | 1 (≈ 1.39 µM) | 1 (≈ 1.39 µM) | 280 | 11
6 | CCCCc1ccc(-c2ccc(C(=O)N[C@@H](CN)C(=O)N[C@H](C(=O)N[C@@H](C)C(=O)N[C@@H](CCCCN)C(=O)N[C@@H](C)B3O[C@@H]4C[C@@H]5C[C@@H](C5(C)C)[C@]4(C)O3)[C@@H](C)O)cc2)cc1 [Compound 149] ({Biphenylcarbonyl(4'-Bu)}-[Dap]TAK-{boroAla((+)-pinanediol)}) | 0.28 (≈ 0.331 µM) | 0.31 (≈ 0.366 µM) | 129 | 3.9
7 | CCCCc1ccc(-c2ccc(CNCC[C@H](N)C(=O)N[C@H](C(=O)N[C@@H](C)C(=O)N[C@@H](CCCCN)C(=O)N[C@@H](C)B3OC4C[C@@H]5C[C@@H](C5(C)C)[C@]4(C)O3)[C@@H](C)O)cc2)cc1 (stereo partly drawn) [Compound 276] | 0.5 (≈ 0.591 µM) | 16 (≈ 18.9 µM) | 110 | 2000
8 | CCCCc1ccc(-c2ccc(C(=O)NCCC(=O)N[C@@H](CCCCN)C(=O)N[C@@H](CCCCN)C(=O)N[C@@H](C)C(=O)N[C@@H](CC(C)C)C(=O)N[C@@H](C)B3OC4C[C@@H]5C[C@@H](C5(C)C)[C@]4(C)O3)cc2)cc1 (stereo partly drawn) [Compound 218] ({Biphenylcarbonyl(4'-Bu)-βAla}-KKAL-X1) | 0.5 (≈ 0.515 µM) | 1.3 (≈ 1.34 µM) | 13 | 6.9
9 | CCCCc1ccc(-c2ccc(OC(=O)N[C@@H](CCCCN)C(=O)N[C@H](C(=O)N[C@@H](C)C(=O)N[C@@H](CC(N)=O)C(=O)N[C@@H](C)B3OC4C[C@@H]5C[C@@H](C5(C)C)[C@]4(C)O3)[C@@H](C)O)cc2)cc1 (stereo partly drawn) [Compound 262] | 2.8 (≈ 3.15 µM) | 8 (≈ 8.99 µM) | 15 | 37
